Among the data in patent publication US7985745B2, “Method for pain treatment” (Abbott Laboratories, priority 2006, dated 2011) are MPE values, retold here.

Experiment [1] relates to tactile allodynia. Description: Complete Freund's adjuvant model, tactile allodynia by von Frey filaments. The experiment is classed as in vivo, rat. To be noted: 48 hours after CFA, mechanical stimulus. As for the experimental part: In a separate method of assessing the effectiveness of representative compounds of the invention against hyperalgesia, animals were tested in the acute model of adjuvant-induced hyperalgesia using Complete Freund's Adjuvant (CFA) as described above, but in this case, tactile allodynia to a mechanical stimulus was measured using calibrated von Frey filaments (Stoelting, Wood Dale, Ill.). Animals were prepared as described above: a solution of Complete Freund's adjuvant (150 microliters of a 50% aqueous solution, Sigma Chemical Company, St. Louis, Mo.) was injected into the plantar surface of test paw of the animal (rat). Rats so injected develop a hyperalgesia to mechanical (touch) stimulation which is assessed 48 hours after injection of the Complete Freund's adjuvant. Withdrawal threshold was determined by increasing and decreasing stimulus intensity, and estimated using the Dixon's up-down method (Dixon, Annual Rev. Pharmacol. Toxicol. (1980) vol. 20, pp. 441-462; Chaplan et al. “Quantitative assessment of tactile allodynia in the rat paw” J. Neuroscience Methods (1994) vol. 53 pp. 55-63). Rats were placed into inverted individual plastic containers (20×12.5×20 cm) on top of a suspended wire mesh with a 1 cm^2 grid to provide access to the ventral side of the hind paws, and acclimated to the test chambers for 20 min. The von Frey filaments were presented perpendicularly to the plantar surface of the selected hind paw, and then held in this position for approximately 8 seconds with enough force to cause a slight bend in the filament. Positive responses included an abrupt withdrawal of the hind paw from the stimulus, or flinching behavior immediately following removal of the stimulus. Withdrawal threshold was determined using an up-down procedure (Dixon, Annual Rev. Pharmacol. Toxicol. (1980) vol. 20, pp. 441-462; Chaplan et al. “Quantitative assessment of tactile allodynia in the rat paw” J. Neuroscience Methods (1994) vol. 53 pp. 55-63). The strength of the maximum filament used for von Frey testing was 15.0 g.

Experiment [2] deals with mechanical allodynia after skin incision. Description: Surgical skin incision model, mechanical allodynia by von Frey hair. The experiment is classed as in vivo, rat. The method, then:
This is a surgical skin incision model (Joshi, et al. Pain 123 (2006) 75-82). Animals (rats) were prepared for testing by subjecting them to a surgical procedure carried out under sterile conditions, where the plantaris muscle was elevated and incised longitudinally with the origin and insertion of the muscle remaining intact. The skin was then closed with two mattress sutures (e.g. 5-0 nylon sutures). After surgery, animals were allowed to recover on a warming plate and housed individually in cages with soft bedding. […] Animals were tested for mechanical allodynia using von Frey hair mechanical stimulation 2, 24, and 48 h after surgery as described for the Chung model.

In experiment [3] the test system is inflammatory pain. In words: Carrageenan-induced thermal hyperalgesia, hotbox assay. To be noted: 90 minutes after carrageenan, tested 30 minutes after dosing. The experiment is classed as in vivo. The method, then:
To assess the effectiveness of representative compounds of the invention against acute model inflammatory pain, animals were tested in an acute model of carrageenan-induced thermal hyperalgesia (see for example, Honore, et al. Behavioural Brain Research 167 (2006) 355-364; Porreca, et al. Journal of Pharmacology and Experimental Therapeutics (2006) vol. 318 pp. 195-205). Carrageenan was injected into the test paw of the animal, and after 90 minutes, the test drug was administered by intraperitoneal dosing. The effect on thermal hyperalgesia was assessed in a hotbox assay which was done 30 minutes after the intraperitoneal dosing of the test drug, and the MPE (maximal percent effect) reported by comparison to the control paw (not injected with carrageenan), according to 100 times the withdrawal latency of the carrageenan injected paw (in seconds) divided by the withdrawal latency of the control (not injected with carrageenan) paw.

In experiment [4] the test system is neuropathic pain. Description: Chung model: L5/L6 spinal nerve ligation, mechanical allodynia by von Frey filaments. To be noted: 30 minutes before testing. The experiment is classed as in vivo, rat. The method, then:
Animals were prepared for testing, by use of a surgical procedure that induces neuropathic pain in one paw. Male Sprague Dawley rats were purchased from Charles River (Portage, Mich.). Prior to surgery, animals were housed in groups and maintained in a temperature-regulated environment. Following nerve ligation surgery, animals were housed in groups, and had access to food and water ad libitum.
The L5 and L6 spinal nerves of anesthetized rats were tightly ligated in a manner described previously (see Kim and Chung, Pain (1992) vol. 50 pp. 355-363). An incision was made on the dorsal portion of the hip and the muscle was blunt-dissected to reveal the spinal processes. The L6 transverse process was removed, and the left side L5 and L6 spinal nerves were tightly ligated with 5.0 braided silk suture. The wound was cleaned, the membrane sewn with 4.0 dissolvable Vicryl suture and the skin closed with wound clips. The paw affected by the surgical procedure (the left paw) develops an allodynic response, a hypersensitivity to mechanical and other stimuli; neuropathic pain is assessed as an increased sensitivity in the surgically affected (left) allodynic paw compared to the control paw on the right side, and measured by comparing the response of the (left side) allodynic paw to the response of the unaffected right side control paw.
For the assessment of neuropathic pain, mechanical allodynia in the affected paw of animals that had undergone spinal nerve ligation was evaluated using testing with von Frey filaments. As described previously by S. R. Chaplan, et al (“Quantitative assessment of tactile allodynia in the rat paw” J. Neurosci. Meth. (1994) vol. 53 pp. 55-63), two weeks following surgery rats were acclimated to a testing box constructed of plexiglass with a wire mesh floor which allowed access to the plantar surface of the animal's hindpaws. Using an Up-Down method (Dixon, Annual Rev. Pharmacol. Toxicol. (1980) vol. 20, pp. 441-462; Chaplan et al. “Quantitative assessment of tactile allodynia in the rat paw” J. Neuroscience Methods (1994) vol. 53 pp. 55-63), von Frey filaments of increasing stiffness were applied to the plantar surface of the hindpaws and the withdrawal response of the animals was observed; for the surgically affected paw with neuropathic pain (the left side paw) the baseline level of allodynia has a withdrawal threshold of ≦4 g of pressure. By comparison, for the control paw without allodynia (in this case the right side paw), the typical withdrawal pressure is around 15 g. Representative compounds of the invention, administered intraperitoneally 30 minutes before testing, are able to reduce the symptoms of neuropathic pain and induce a dose-dependent increase in the withdrawal threshold for allodynic (left side) limb, up to a maximum effect of 15 g. The efficacy of the compound in reducing neuropathic pain at different doses is determined by comparing response in the surgery-affected paw versus the response in the control paw. This is expressed as the MPE (maximum percent effect), or 100 times the withdrawal threshold of the allodynic (left side) divided by the withdrawal threshold of the control (right side).

Each structure is given as a SMILES string.

On to `CN1CCN(c2cc(-c3ccc(C#N)cc3)nc(N)n2)CC1.O=C(O)/C=C\C(=O)O` [Example 1, 4-(2-Amino-6-(4-methylpiperazin-1-yl)pyrimidin-4-yl)benzonitrile, maleate], for which the MPE in experiment [1] (30 micromole/kg i.p.) is 42%; in experiment [1] (100 micromole/kg i.p.), 63%; in experiment [2] (30 micromole/kg i.p.), 31%; in experiment [2] (100 micromole/kg i.p.) it was 65%; in experiment [3] (30 micromole/kg i.p.), 36%; in experiment [3] (100 micromole/kg i.p.) it was 100%. The MPE stood at 14% in experiment [4] (30 micromole/kg i.p.), 44% in experiment [4] (100 micromole/kg i.p.), 77% in experiment [4] (300 micromole/kg i.p.) and 97% in experiment [4] (500 micromole/kg i.p.).
Take `CN1CCN(C(=O)c2cc3cc(Cl)ccc3[nH]2)CC1` [Example 3, reference compound]: the MPE was determined as 55% in experiment [1] (30 micromole/kg i.p.); 71% in experiment [1] (300 micromole/kg i.p.); 46% in experiment [2] (250 micromole/kg i.p.); 79% in experiment [2] (500 micromole/kg i.p.); 23% in experiment [3] (30 micromole/kg i.p.); 49% in experiment [3] (100 micromole/kg i.p.). Moreover, the MPE in experiment [3] (300 micromole/kg i.p.) is reported as 96%; in experiment [4] (100 micromole/kg i.p.), 16%; in experiment [4] (250 micromole/kg i.p.), 50%; in experiment [4] (500 micromole/kg i.p.), 94%.
In the case of `CNC1CN(c2nc(N)nc3c2CCCc2ccccc2-3)C1` [Example 6, 4-(3-Methylamino-azetidin-1-yl)-6,7-dihydro-5H-benzo[6,7]cyclohepta[1,2-d]pyrimidin-2-ylamine], the MPE in experiment [1] (30 micromole/kg i.p.) is on record as 35%; in experiment [1] (100 micromole/kg i.p.) it was 49%; in experiment [2] (30 micromole/kg i.p.) it was 21%; in experiment [2] (100 micromole/kg i.p.), 69%; in experiment [3] (100 micromole/kg i.p.) it was 41%; in experiment [4] (100 micromole/kg i.p.), 36%. In addition, the MPE in experiment [4] (300 micromole/kg i.p.) stood at 78%.
